Assay results from publication PMC7804942, “The amphibian peptide Yodha is virucidal for Zika and dengue viruses” (Scientific Reports, 2021).
Where no end group is shown, it is not given here.

Tests used:
[1] = system: ZIKV; experiment: ZIKV neutralisation by mutant, enantiomer and variant peptides (strain not stated); assay type: cell-based, Zika virus
Method: To further characterize Yodha peptide, we generated alanine-scanning mutants of the peptide, which removes the side chain, but maintains peptide conformation, allowing for the assessment of the significance of each amino acid within the larger structure (Fig. 4A). Each of 23 mutated peptides was tested for its (a) ability to neutralize ZIKV (Fig. 4B) and (b) toxicity against human RBC, if any (Fig. 4C).
So next, we sought to determine how common this peptide or its analogs are in host defense peptides isolated from elsewhere in the world. […] We then determined the extent to which any of these variant peptides can neutralize ZIKV. […] We also generated a series of mutant Yodha peptides, including one which lacks the C terminal DDQERC, a short 12 peptide fragment that lacks the EEERGA from variant #12, and a S1P peptide that replace S1-P in the full-length Yodha (Fig. 5D) and tested their activity against ZIKV (Fig. 5D).
(§1) Peptides were incubated with ZIKV (100 FFU/well) for 2 h at 37 °C. This incubated mixture was used to infect Vero cells for 1.5 h at 37 °C. Cells and inoculum were overlaid with 2% methylcellulose solution (OptiMEM; Gibco) and incubated for 72 h at 37 °C. Cells were washed with PBS and fixed with a 1:1 methanol/acetone mixture for 30 min. Cells were blocked with 5% milk/PSB at room temperature for 20 min and incubated with primary antibody (anti-flavivirus mouse 4G2[10] antibody) for 2 h at 37 °C. Then, cells were incubated with secondary antibody (HRP-conjugated goat anti-mouse IgG, Cell Signaling) for 1 h at 37 °C. Cells were developed with TrueBlue Peroxidase Substrate (KPL). Plates were read on a CTL-ImmunoSpot S6 Micro analyzer.

[2] = system: DENV3; conditions: FFA
Method: Dengue virus strains 1, 2, 3 and 4 were treated with wither Yodha or control OVA peptide at (A) 50 µM (B) 160 µM concentration and the % of viral focus forming units were determined. (C) IC50 measurement of Yodha in DENVs infection by FFA. […] OVA peptide was used a negative control.
as §1

Sequence: PMLLLFFLGTISLSLCQEERGA [variant 21, naturally occurring variant of Yodha isolated from the frog I. temporalis]
- virucidal activity of naturally occurring variants against ZIKV [1]: exhibited activity

Sequence: PMLLLFFLGTISLSLCQEEERGA [variant #12, brevinin-2KK2, naturally occurring variant of Yodha from Rana kukunoris]
- increased effect against ZIKV than Yodha peptide [1]: 1.6 fold

Sequence: PMLLLFFLGTISLSLCQ [truncated Yodha variant 12]
- efficiency against DENV3 compared to the full length Yodha peptide ([2]; dose escalation): very efficient
- IC50 ([2]; read-out: IC50 for DENV3): 30 µM
- activity of truncated and S1P mutant peptides against ZIKV versus WT Yodha [1]: significantly improved activity
